Source: patent US11174253B2, “Compound and pharmaceutical composition containing the same” (ALPHALA CO., LTD., priority 2017, dated 2021)

Columns and labels:
Assay type in all cases: cell-based
[1] = tested on: NCI-H460 human lung cancer cell line; assay: MTS cell viability assay (NCI-60 methodology), GI50/LC50, NCI-H460; conditions: 48 h, NCI-H460 cells, 2 days incubation with compound
Method: (§1) The number of treated cells was determined by GE InCell 2200 system, and treated cells were stained with Hoechst 33342 which can reveal the remained nucleus in culture plate. The proportion of survival cells then were calculated with the ratio of treated/non-treated cells. The growth inhibition/cytotoxic effect of selected compounds were evaluated by the following protocol of NCI-60 screening platform. The human tumor cell lines are plating on a 96 well plate in a fixed density 24 hr prior compound treatment. Compounds with multiple concentrations are then added into each well for further 48 hr incubation. Cell viability is assessed by MTS method and the potency of compound is represented by GI50 and LC50 calculated by MTS result.
(§2) The cell viability measurement is based on the NCI-60 screening methodology (Nat. Rev. Cancer 6, 813-823, 2006). Briefly, cells are inoculated into 96-well plates at the optimal plating density. After 24 h, one of the two plates for each cell line is processed to determine a time zero cell viability (Tz) by MTS assay (Promega). Compounds are added over a 2-fold serial dilution to provide a total five drug concentrations plus DMSO control. Plates are incubated for a further 2 days, then measured cell viability by MTS assay [control growth (C) and test growth in the presence of drug at the five concentration levels (Ti)]. Growth inhibition of 50% (GI50) is calculated from [(Ti−Tz)/(C−Tz)]×100=50, which is the drug concentration resulting in a 50% reduction of control cells during the drug incubation. The LC50 is calculated from [(Ti−Tz)/Tz]×100=−50, which is the drug concentration resulting in a 50% reduction at the end of the drug treatment as compared to that at the beginning.
(§3) Herein, Hep3B refers to hepatocellular carcinoma cell line, SW480 refers to colon adenocarcinoma cell line, and NCI-H460 refers to human lung cancer cell line.

[2] = tested on: SW480 colon adenocarcinoma cell line; assay: MTS cell viability assay (NCI-60 methodology), GI50/LC50, SW480; conditions: Homo sapiens, 48 h, SW480 cells, 2 days incubation with compound
Method: as §1, §2, §3

[3] = tested on: Hep3B hepatocellular carcinoma cell line; assay: MTS cell viability assay (NCI-60 methodology), GI50/LC50, Hep3B; conditions: Homo sapiens, 48 h, Hep3B cells, 2 days incubation with compound
Method: as §1, §2, §3

[4] = tested on: hepatocellular carcinoma cell line Hep3B; assay: Growth inhibition of Hep3B cells, 48 hr treatment, Hoechst 33342 nucleus count (GE InCell 2200); conditions: Homo sapiens
How it was run: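 Compound exposure lasted 48 hr at 37° C, 5% CO2. Surviving nuclei were counted after Hoechst 33342 staining, and survival was expressed as the treated/non-treated cell number ratio, including the ratio at 10 μM compound.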

[5] = Table 6, ratio of number of tumor cells treated with 10 μM compound to non-treated cells
[6] = Table 5, ratio of number of tumor cells treated with 10 μM compound to non-treated cells

SMILES: CC(C)(C)c1ccc(-c2nc(NC(=O)c3ccc([N+](=O)[O-])s3)sc2-c2ccc(Br)cc2)cc1 [Compound 6-53, N-(5-(4-bromophenyl)-4-(4-(tert-butyl)phenyl)thiazol-2-yl)-5-nitrothiophene-2-carboxamide]
- GI50 [1]: 710 nM
- LC50 (concentration giving 50% net cell loss versus time zero, NCI-60 definition) [1]: 1370 nM
- GI50 [2]: 620 nM
- LC50 (NCI-60 lethal concentration, 50% net cell loss vs time zero) [2]: 990 nM
- GI50 [3]: 540 nM
- LC50 [3]: 620 nM
- viability at 10 µM [4, 5]: 24%

SMILES: CCCOc1ccc(-c2nc(NC(=O)c3ccc([N+](=O)[O-])s3)sc2Oc2ccc(C(F)(F)F)cc2Cl)cc1 [Compound 5-38, N-(5-(2-chloro-4-(trifluoromethyl)phenoxy)-4-(4-propoxyphenyl)thiazol-2-yl)-5-nitrothiophene-2-carboxamide]
- GI50 [1]: 570 nM
- LC50 (concentration giving 50% net cell loss versus time zero, NCI-60 definition) [1]: 1430 nM
- GI50 [2]: 770 nM
- LC50 (NCI-60 lethal concentration, 50% net cell loss vs time zero) [2]: 3220 nM
- GI50 [3]: 370 nM
- LC50 [3]: 1710 nM
- viability at 10 µM [4, 6]: 41%

SMILES: CCC(C)(C)c1ccc(Oc2sc(NC(=O)c3ccc([N+](=O)[O-])s3)nc2-c2ccc(C(F)(F)F)cc2)cc1 [Compound 5-71, 5-nitro-N-(5-(4-(tert-pentyl)phenoxy)-4-(4-(trifluoromethyl)phenyl)thiazol-2-yl)thiophene-2-carboxamide]
- GI50 [1]: 1530 nM
- LC50 (concentration giving 50% net cell loss versus time zero, NCI-60 definition) [1]: 2400 nM
- GI50 [2]: 810 nM
- LC50 (NCI-60 lethal concentration, 50% net cell loss vs time zero) [2]: 1720 nM
- GI50 [3]: 630 nM
- LC50 [3]: 660 nM
- viability at 10 µM [4, 6]: 49%

SMILES: CCOc1ccc(-c2nc(NC(=O)c3ccc([N+](=O)[O-])s3)sc2Cc2ccccc2)cc1 [Compound 6-34, N-(5-benzyl-4-(4-ethoxyphenyl)thiazol-2-yl)-5-nitrothiophene-2-carboxamide]
- GI50 [1]: 1400 nM
- GI50 [2]: 2510 nM
- GI50 [3]: 1010 nM
- LC50 [3]: 7530 nM
- viability at 10 µM [4, 5]: 44%

SMILES: CC(C)(C)c1ccc(-c2nc(NC(=O)c3ccc([N+](=O)[O-])s3)sc2Oc2ccc(C(F)(F)F)cc2)cc1 [Compound 5-74, N-(4-(4-(tert-butyl)phenyl)-5-(4-(trifluoromethyl)phenoxy)thiazol-2-yl)-5-nitrothiophene-2-carboxamide]
- GI50 [1]: 720 nM
- LC50 (concentration giving 50% net cell loss versus time zero, NCI-60 definition) [1]: 1300 nM
- GI50 [2]: 690 nM
- LC50 (NCI-60 lethal concentration, 50% net cell loss vs time zero) [2]: 1290 nM
- GI50 [3]: 1160 nM
- LC50 [3]: 1680 nM
- viability at 10 µM [4, 6]: 33%

SMILES: CCC(C)(C)c1ccc(Oc2sc(NC(=O)c3ccc([N+](=O)[O-])s3)nc2-c2ccc(F)cc2)cc1 [Compound 5-62, N-(4-(4-fluorophenyl)-5-(4-(tert-pentyl)phenoxy)thiazol-2-yl)-5-nitrothiophene-2-carboxamide]
- GI50 [1]: 590 nM
- LC50 (concentration giving 50% net cell loss versus time zero, NCI-60 definition) [1]: 1240 nM
- GI50 [2]: 760 nM
- LC50 (NCI-60 lethal concentration, 50% net cell loss vs time zero) [2]: 2250 nM
- GI50 [3]: 450 nM
- LC50 [3]: 1160 nM
- viability at 10 µM [4, 6]: 45%

SMILES: CCCCOc1cc(OCC)ccc1-c1nnc(NC(=O)Cc2ccc3nc(N)sc3c2)s1 [Compound 1-23, 2-(2-aminobenzo[d]thiazol-6-yl)-N-(5-(2-butoxy-4-ethoxyphenyl)-1,3,4-thiadiazol-2-yl)acetamide]
- GI50 [1]: 580 nM
- LC50 (concentration giving 50% net cell loss versus time zero, NCI-60 definition) [1]: 580 nM
- GI50 [2]: 520 nM
- LC50 (NCI-60 lethal concentration, 50% net cell loss vs time zero) [2]: 520 nM
- GI50 [3]: 480 nM
- LC50 [3]: 480 nM
- viability at 10 µM ([4]; Table 1, ratio of number of tumor cells treated with 10 μM compound to non-treated cells): 71%

SMILES: CC(C)(C)c1ccc(-c2nc(NC(=O)c3ccc([N+](=O)[O-])s3)sc2Oc2ccc(F)cc2)cc1 [Compound 5-20, N-(4-(4-(tert-butyl)phenyl)-5-(4-fluorophenoxy)thiazol-2-yl)-5-nitrothiophene-2-carboxamide]
- GI50 [1]: 2760 nM
- LC50 (concentration giving 50% net cell loss versus time zero, NCI-60 definition) [1]: 8340 nM
- GI50 [2]: 880 nM
- LC50 (NCI-60 lethal concentration, 50% net cell loss vs time zero) [2]: 3730 nM
- GI50 [3]: 790 nM
- LC50 [3]: 2630 nM
- viability at 10 µM [4, 6]: 62%
